Patent US12479866B2, “Boron-containing rho kinase inhibitors” (Percipiad, Inc., priority 2019, dated 2025)
Where “and” joins values, the source holds several entries; their conditions need not be identical. Equal entries are not always repeated.

Key:
[1] = Octanol/buffer partition coefficient (log D7.4); format: physicochemical; conditions: n-octanol / pH 7.4 phosphate buffer, read-out: log D at pH 7.4
Protocol: In a single incubation, 15 μL of a 10 mM DMSO solution of each test article was added to test tubes, which contained 0.75 mL of n-octanol and 0.75 mL of pH 7.4 phosphate buffer. Testosterone was also introduced to each tube as an internal control, also at a dosing concentration of 100 μM. These samples were gently mixed on a benchtop rotator for 1 hour at room temperature. The tubes were then removed from the rotator and the aqueous and organic phases were allowed to separate for 1 hour. […] As a methods control, the log D of testosterone was also measured at a satisfactory value.

ROCK2 = ROCK2 (Homo sapiens (Human), UniProt O75116); test: Stability in varied buffers and temperatures, measured by ROCK2 inhibition; format: physicochemical
ROCK2, sequence (O75116 whole entry): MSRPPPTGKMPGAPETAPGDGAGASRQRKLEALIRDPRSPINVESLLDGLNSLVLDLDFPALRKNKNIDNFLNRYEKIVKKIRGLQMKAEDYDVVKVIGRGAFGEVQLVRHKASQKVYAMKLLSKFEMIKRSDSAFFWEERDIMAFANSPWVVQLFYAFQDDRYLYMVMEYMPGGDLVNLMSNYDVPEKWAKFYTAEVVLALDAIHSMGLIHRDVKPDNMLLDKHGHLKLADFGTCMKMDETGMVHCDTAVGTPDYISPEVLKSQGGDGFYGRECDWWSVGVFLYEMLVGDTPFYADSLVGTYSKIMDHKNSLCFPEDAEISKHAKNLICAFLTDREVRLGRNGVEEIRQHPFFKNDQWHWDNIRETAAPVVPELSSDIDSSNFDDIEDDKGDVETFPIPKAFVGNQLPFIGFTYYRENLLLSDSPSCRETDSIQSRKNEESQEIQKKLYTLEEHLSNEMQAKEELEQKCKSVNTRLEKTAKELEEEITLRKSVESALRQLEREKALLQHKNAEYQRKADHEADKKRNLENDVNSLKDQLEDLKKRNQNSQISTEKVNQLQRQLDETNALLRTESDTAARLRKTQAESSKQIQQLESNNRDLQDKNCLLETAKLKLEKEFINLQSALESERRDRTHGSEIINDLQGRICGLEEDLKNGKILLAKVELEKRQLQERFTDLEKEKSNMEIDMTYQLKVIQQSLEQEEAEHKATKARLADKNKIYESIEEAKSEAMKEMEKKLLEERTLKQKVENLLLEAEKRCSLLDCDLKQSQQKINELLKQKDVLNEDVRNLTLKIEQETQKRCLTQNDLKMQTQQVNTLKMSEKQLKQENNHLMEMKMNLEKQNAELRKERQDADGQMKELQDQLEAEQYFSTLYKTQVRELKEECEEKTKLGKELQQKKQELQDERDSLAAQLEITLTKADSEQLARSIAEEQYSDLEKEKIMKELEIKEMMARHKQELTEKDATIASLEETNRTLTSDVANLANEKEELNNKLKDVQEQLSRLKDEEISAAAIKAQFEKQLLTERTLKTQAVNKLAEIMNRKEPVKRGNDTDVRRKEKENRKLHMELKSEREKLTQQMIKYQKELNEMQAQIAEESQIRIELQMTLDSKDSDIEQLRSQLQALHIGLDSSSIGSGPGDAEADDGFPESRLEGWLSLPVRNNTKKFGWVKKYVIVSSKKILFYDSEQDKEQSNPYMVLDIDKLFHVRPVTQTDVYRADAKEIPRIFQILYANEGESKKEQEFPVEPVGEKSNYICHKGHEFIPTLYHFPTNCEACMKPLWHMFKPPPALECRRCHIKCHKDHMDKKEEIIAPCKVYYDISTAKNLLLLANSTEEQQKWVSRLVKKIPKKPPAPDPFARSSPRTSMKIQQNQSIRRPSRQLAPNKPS

[2] = water, thermodynamic from solid
[3] = tested on: New Zealand White rabbits; conditions: 0.1 ml, 20 mg/ml in saline
Excerpt: The right eye that was not treated served as the control. […] The eyes of initial and confirmatory test animals were examined with slit lamp for ocular lesions. […] The animals were also observed for clinical signs of toxicity, morbidity and mortality.

[4] = Solubility Assay #3, qualitative solubility in borate and citrate buffers; format: physicochemical; conditions: borate and citrate buffers at a series of pH values
CDK2/CyclinE1 = CDK2/CyclinE1 (Homo sapiens (Human), UniProt P24941); test: Kinase Selectivity Profiling General Panel (ADP-Glo); format: biochemical; conditions: 1 μM compound, read-out: Percent enzyme activity inhibition, CDK2/CyclinE1
Protocol: After this incubation, 5 μl of ADP-Glo™ reagent was added to 5 μl reaction and incubated for 40 minutes. Then, 10 μl of Kinase Detection Reagent added to all assay wells in the assay plate and incubated at room temperature for 30 minutes.

[5] = tested on: New Zealand White rabbits; test: Phenol-induced chronic model of glaucoma, IOP; format: in vivo, rabbit
Excerpt: For these efficacy studies methods were followed as described in (Jacob et al, A promising drug candidate for the treatment of glaucoma based on a P2Y6-receptor agonist, Purinergic Signal. 2018 September; 14 (3): 271-284). In all studies, male New Zealand White rabbits were acclimatized for one week before the study. Animals were given food and water ad libitum. Body weights of rabbits ranged from 2 to 3 kg. Animals were trained for the IOP measurement procedure during the acclimation period in order to reduce stress and obtaining more accurate measurements during the study. IOP measurements were taken using the Icare® TONOVET Plus tonometer. […] The technique of use of the […] tonometer in rabbits was described previously (Gloe et al, Validation of the Icare® TONOVET Plus Rebound Tonometer in Normal Rabbit Eyes, Exp Eye Res. 2019 August; 185:107698). IOP readings are obtained only when the tonometer is held an appropriate distance and in the correct plane relative to the ocular surface. Green light appears when the orientation is correct, thereby minimizing operator errors. […] IOP was measured daily after phenol injection and IOP doubled in 8 days after phenol injection. […] IOP readings were taken on mornings of days 8 to 12 before compound application and 0.5 and 1 hour after morning application. […]

HEK293 cells = test: CellTiter-Glo Luminescent Cell Viability Assay; conditions: HEK293 cells, 25, 2.5, or 0.25 μM, two days
Protocol: We used CellTiter-Glo® Luminescent Cell Viability Assay (Promega, cat #G7573) to determine the number of viable cells in culture based on quantitation of the ATP present, which signals the presence of metabolically active cells. • 1. Prepared HEK293 suspension culture cells (ThermoFisher, cat #A14635) and added 50 μl cells in media (12,500 cells) to each well of a white, opaque-walled 96-well plate in triplicate. • 2. […] Incubated at 37° C. and 5% CO2 for two days. • 4. Added 100 μl of CellTiter-Glo® Reagent to each well and mix contents for 2 minutes on an orbital shaker to induce cell lysis. • 5. Recorded luminescence using a plate luminometer.

IRAK4 = IRAK4 (Homo sapiens (Human), UniProt Q9NWZ3); test: Kinase Selectivity Profiling General Panel (ADP-Glo); format: biochemical; conditions: 1 μM compound, read-out: Percent enzyme activity inhibition, IRAK4
IRAK4, sequence (Q9NWZ3 whole entry): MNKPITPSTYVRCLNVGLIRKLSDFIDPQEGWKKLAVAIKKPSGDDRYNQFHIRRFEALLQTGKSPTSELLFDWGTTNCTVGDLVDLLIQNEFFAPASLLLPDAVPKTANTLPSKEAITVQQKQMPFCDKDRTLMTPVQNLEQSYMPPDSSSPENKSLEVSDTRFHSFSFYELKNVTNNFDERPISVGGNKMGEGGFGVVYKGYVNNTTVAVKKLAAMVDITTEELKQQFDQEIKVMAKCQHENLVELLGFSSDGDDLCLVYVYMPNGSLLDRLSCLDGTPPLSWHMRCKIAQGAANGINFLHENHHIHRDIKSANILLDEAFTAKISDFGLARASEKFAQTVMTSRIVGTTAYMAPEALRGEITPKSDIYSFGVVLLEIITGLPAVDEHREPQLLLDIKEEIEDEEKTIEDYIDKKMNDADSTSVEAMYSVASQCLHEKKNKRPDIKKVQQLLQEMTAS
Protocol: (§1) After this incubation, 5 μl of ADP-Glo™ reagent was added to 5 μl reaction and incubated for 40 minutes. Then, 10 μl of Kinase Detection Reagent added to all assay wells in the assay plate and incubated at room temperature for 30 minutes. […]

DAPK1 = DAPK1 (Homo sapiens (Human), UniProt P53355); test: as above; format: biochemical; conditions: 1 μM compound, read-out: Percent enzyme activity inhibition, DAPK1
DAPK1, sequence (P53355 whole entry): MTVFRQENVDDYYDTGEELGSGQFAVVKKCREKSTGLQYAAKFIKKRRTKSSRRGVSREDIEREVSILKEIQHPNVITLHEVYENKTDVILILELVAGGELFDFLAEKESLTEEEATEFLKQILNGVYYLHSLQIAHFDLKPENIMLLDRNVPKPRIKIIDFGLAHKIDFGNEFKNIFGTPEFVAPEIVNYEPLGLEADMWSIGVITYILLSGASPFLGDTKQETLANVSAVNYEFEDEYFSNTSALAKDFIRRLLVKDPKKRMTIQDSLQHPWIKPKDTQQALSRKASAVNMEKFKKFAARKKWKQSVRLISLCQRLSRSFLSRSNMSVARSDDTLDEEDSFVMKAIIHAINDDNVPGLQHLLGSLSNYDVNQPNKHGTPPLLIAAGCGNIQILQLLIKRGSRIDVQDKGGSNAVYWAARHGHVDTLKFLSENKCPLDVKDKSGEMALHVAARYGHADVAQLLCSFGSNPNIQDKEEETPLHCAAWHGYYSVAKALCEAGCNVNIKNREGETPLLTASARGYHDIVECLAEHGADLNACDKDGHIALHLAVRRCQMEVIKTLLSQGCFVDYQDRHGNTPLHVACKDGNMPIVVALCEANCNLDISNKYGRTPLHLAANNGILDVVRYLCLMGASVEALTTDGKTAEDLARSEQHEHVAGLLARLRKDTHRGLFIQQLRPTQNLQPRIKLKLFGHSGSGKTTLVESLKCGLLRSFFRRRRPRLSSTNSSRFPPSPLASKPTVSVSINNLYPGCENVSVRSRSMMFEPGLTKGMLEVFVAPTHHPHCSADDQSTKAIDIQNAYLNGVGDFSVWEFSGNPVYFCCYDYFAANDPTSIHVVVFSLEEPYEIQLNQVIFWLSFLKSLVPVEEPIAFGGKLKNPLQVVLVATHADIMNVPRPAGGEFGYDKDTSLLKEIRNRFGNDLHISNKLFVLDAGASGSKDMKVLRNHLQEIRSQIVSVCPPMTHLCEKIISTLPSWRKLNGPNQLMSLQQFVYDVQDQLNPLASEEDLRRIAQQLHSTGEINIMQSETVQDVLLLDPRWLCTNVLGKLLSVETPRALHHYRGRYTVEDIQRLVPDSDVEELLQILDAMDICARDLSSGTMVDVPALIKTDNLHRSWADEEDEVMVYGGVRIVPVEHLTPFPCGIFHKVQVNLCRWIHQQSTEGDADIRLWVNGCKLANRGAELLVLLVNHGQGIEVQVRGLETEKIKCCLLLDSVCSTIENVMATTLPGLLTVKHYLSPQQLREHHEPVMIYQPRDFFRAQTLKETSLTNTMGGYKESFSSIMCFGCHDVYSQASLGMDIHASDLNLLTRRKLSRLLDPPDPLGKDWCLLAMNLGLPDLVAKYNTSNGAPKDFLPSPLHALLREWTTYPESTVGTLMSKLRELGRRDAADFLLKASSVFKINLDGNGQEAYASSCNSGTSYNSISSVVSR
Protocol: as §1

CK1g1 = CK1g1 (Homo sapiens (Human), UniProt Q9HCP0); test: as above; format: biochemical; conditions: 1 μM compound, read-out: Percent enzyme activity inhibition, CK1g1
CK1g1, sequence (Q9HCP0 whole entry): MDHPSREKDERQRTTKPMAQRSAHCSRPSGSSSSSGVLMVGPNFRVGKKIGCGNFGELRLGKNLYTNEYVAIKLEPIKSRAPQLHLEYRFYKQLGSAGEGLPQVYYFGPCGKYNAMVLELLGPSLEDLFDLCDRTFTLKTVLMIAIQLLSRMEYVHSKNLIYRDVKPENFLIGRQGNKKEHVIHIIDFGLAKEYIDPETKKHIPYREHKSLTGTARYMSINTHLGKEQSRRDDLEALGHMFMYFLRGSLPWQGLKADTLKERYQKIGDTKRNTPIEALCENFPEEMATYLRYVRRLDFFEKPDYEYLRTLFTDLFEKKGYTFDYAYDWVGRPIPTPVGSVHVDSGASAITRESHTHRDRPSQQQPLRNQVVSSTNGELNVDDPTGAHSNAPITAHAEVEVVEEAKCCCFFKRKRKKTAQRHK
Protocol: as §1

[6] = Stability in buffer, plasma, and blood (LC-MS/MS); format: in vitro ADME, human; parameters: half-life: dose or concentration left out as unconfirmed
Protocol: Stability in buffer, plasma, and blood. Study was conducted by Absorption Systems. Studies were carried out in pH 7.4 phosphate buffer, mixed-gender human plasma (Lot #HMN330460), and mixed-gender human whole blood (Lot #HMN 381096). […] The plasma and blood were obtained from BioIVT and collected on sodium heparin. They were adjusted to pH 7.4 prior to initiating the experiments. […] Aliquots of the DMSO solution were dosed into 1 mL of matrix, which had been pre-warmed to 37° C., at a final concentration of […]. The vials were kept in a benchtop Thermomixer® for the duration of the experiment. Aliquots (100 μL) were taken at each time point (0, 15, 30, 60, and 120 minutes) and added to 96-well plates, which had been pre-filled with 300 μL of acetonitrile (ACN). Samples were stored at 4° C. until the end of the experiment. After the final time point was sampled, the plate was mixed and then centrifuged at 3,000 rpm for 10 minutes. Aliquots of the supernatant were removed, diluted 1:1 into distilled water, and analyzed by LC-MS/MS (Table 21). The peak area response ratio to internal standard (PARR) was compared to the PARR at time 0 to determine the percent of test article remaining at each time point. Half-lives were calculated using GraphPad software, fitting to a single-phase exponential decay equation.

Cl.Cl.NCC(C(=O)Nc1ccc2cnccc2c1)c1ccc(B(O)O)cc1 (stereo not drawn) [Compound 10•2HCl]
logD [1]: 0.822
% ROCK2 inhibition at 20 nM (ROCK2; 25 mM Borate pH 7 (0.5 mg/ml), 15 days at 23° C.): 36%
% ROCK2 inhibition at 20 nM (ROCK2; 25 mM Borate, pH 7 (0.5 mg/ml), 15 days at −20° C.): 34%
% ROCK2 inhibition at 20 nM (ROCK2; 25 mM Borate, pH 7, 150 mM NaCl (0.5 mg/ml), 15 days at 23° C.): 32%
Stability in solution (ROCK2; pH 5 and 7 buffers, room temperature): stable in pH 5 and 7 buffers at room temperature for 15 days
solubility [2]: > 100000 µg/mL and > 234000 µM
clinical signs of toxicity, morbidity and mortality [3]: No treatment-related adverse effects were noticed
pH at which precipitation occurs [4]: ~8.5
inhibition at 1 µM (CDK2/CyclinE1): 11%
Effect on IOP after first application ([5]; 1 mg/ml (2.34 mM) in saline, day 8 after phenol injection): decrease of IOP to normal levels within 1 hour after application
Effect of subsequent twice daily application on IOP ([5]; 1 mg/ml twice daily, days 8 to 12): maintained normal IOP
Cell viability (ATP amount) (HEK293 cells): same amount of ATP as cells without inhibitor
inhibition at 1 µM (IRAK4): 0%
inhibition at 1 µM (DAPK1): 20%
inhibition at 1 µM (CK1g1): 0%
Percent Remaining ([6]; Buffer pH 7.4, 37° C., 0 min): 100%
Percent Remaining ([6]; Buffer pH 7.4, 37° C., 15 min): 102%
Percent Remaining ([6]; Buffer pH 7.4, 37° C., 30 min): 97%
Percent Remaining ([6]; Buffer pH 7.4, 37° C., 60 min): 101%
Percent Remaining ([6]; Buffer pH 7.4, 37° C., 120 min): 93%
half-life ([6]; both sexes, pH 7.4, human Plasma, 37° C.): > 120 min
half-life ([6]; both sexes, pH 7.4, human whole Blood, 37° C.): > 120 min
Percent Remaining ([6]; human Plasma, 37° C., 0 min): 100%
Percent Remaining ([6]; human Plasma, 37° C., 15 min): 82%
Percent Remaining ([6]; human Plasma, 37° C., 30 min): 106%
Percent Remaining ([6]; human Plasma, 37° C., 60 min): 83%
Percent Remaining ([6]; human Plasma, 37° C., 120 min): 91%
Percent Remaining ([6]; human whole Blood, 37° C., 0 min): 100%
Percent Remaining ([6]; human whole Blood, 37° C., 15 min): 92%
Percent Remaining ([6]; human whole Blood, 37° C., 30 min): 87%
Percent Remaining ([6]; human whole Blood, 37° C., 60 min): 100%
Percent Remaining ([6]; human whole Blood, 37° C., 120 min): 115%
half-life ([6]; pH 7.4 phosphate buffer, Buffer pH 7.4, 37° C.): > 120 min
